Values of other authors as cited in patent publication EP0374097A2, “Use of peptide isosteres as retroviral protease inhibitors” (CIBA-GEIGY AG, priority 1988, dated 1990).

System: gag-Protease von HIV
Conditions: stated as known

Substance: Pepstatin
- Hemmung der gag-Protease von HIV: gehemmt
